Source: patent US11484522B2, “Composite formulation and use thereof for preparing drugs for the treatment of tumours” (TIANJIN MEDICAL UNIVERSITY GENERAL HOSPITAL, priority 2018, dated 2022)

Legend:
beta-catenin = experiment: Immunofluorescence and WB of beta-catenin and downstream EMT-related genes; type: cell-based
From the text: (§1) Among the three predicted H3K27me3 binding sites in the promoter region of the target gene adenomatous polyposis coli 2 (APC2), sitel is a significant binding region of H3K27me3 (FIG. 5A). After the treatment with 36806, the binding of H3K27me3 in sitel region was weakened, and the binding of RNA polymerase II was strengthened (FIGS. 5B and 5C). […] APC2 is a tumor suppressor gene that can participate in the degradation of beta-catenin by ubiquitination and can inhibit the WNT signal path. The increased expression of APC2 can boost the degradation of beta-catenin. The nucleus-cytoplasm distribution of beta-catenin of cells in the treated group was decreased compared with that of the DMSO group (FIGS. 5D-5F). In this way, the downstream transcription of beta-catenin is inhibited, the expression of downstream EMT-related gene of multiple tumor cell lines is inhibited, and the protein expression is reduced (FIGS. 5G). Therefore, the invasion of tumor cells is weakened (FIG. 5H). Therefore, 36806 can inhibits the WNT signal path, reverses tumor EMT, and reduces tumor invasion and metastasis by increasing the expression level of target gene APC2.

[1] = system: binding of HOTAIR to the target genes; experiment: CHIRP experiments, binding of HOTAIR to target genes; conditions: 40 nM
From the text: (§2) Therefore, the inhibiting effect of 36806 on HOTAIR-EZH2 is specific.

[2] = system: H3K27me3 in the promoter region of the target genes; experiment: CHIP experiments, H3K27me3 and RNA polymerase II in promoter region of target genes; type: cell-based
From the text: FIG. 3F: Chromatin immunoprecipitation (CHIP) experiments verified that 36806 affected the recruitment of PRC2 by HOTAIR after hindering the binding of HOTAIR to EZH2, such that the level of H3K27me3 in the promoter region of the target genes was reduced and the target genes were transcriptionally activated.
FIG. 5A: The Site1 region before the transcription initiation of APC2 is a transcription promoter region of APC2 and a binding region of H3K27me3.
FIG. 5B: After the treatment with 36806, the binding of H3K27me3 in Site1 region was weakened, and the binding of RNA polymerase II was strengthened.
as §2, §1

HOTAIR target genes [3] = experiment: qPCR RNA level of HOTAIR target genes in tumor cell lines; type: cell-based
Protocol: FIG. 2B: The variations in RNA level of a target gene 48 h after treating with 40 nM of 36806 in multiple tumor cell lines.
FIG. 4A: RNA levels change of target genes in glioma and breast cancer cell lines after treating with 40 uM of 36806 for 48 hours.
FIG. 4C: RNA levels change of target genes after treating with low-dose 36806 concentration gradient for 48 hours.
(§3) Therefore, 36806 is capable of inhibiting the binding of HOTAIR to EZH2 at low concentrations and interfering with the recruitment of PRC2 to target genes, to relieve the target genes from silent suppression of histone methylation, thereby altering the function of epigenetic regulation.

HOTAIR target genes [4] = experiment: Western blot of protein level of HOTAIR target genes; type: cell-based
Protocol: as §3
The combination index (CI) of 36806 and DZNEP was measured by CalcuSyn software. […] After the transfection of EZH2 interfering RNA, combined with 36806 treatment, the transcription level of HOTAIR's target genes was higher (FIG. 7C). […] When used in combination with low-dose 36806, the dosage of DZNEP can be reduced by ⅘ (FIG. 7D).

[5] = system: glioblastoma, breast cancer, melanoma and gastric cancer cell lines; experiment: Transwell invasion assay; type: cell-based; conditions: low-dose 40 nM (FIG. 5H)
From the text: as §1

[6] = system: multiple tumor cell lines; conditions: glioblastoma (U87-MG, LN229, primary N33), breast cancer (MDA-MB-231, MCF-7), HeLa, A375, SGC-7901, MGC-803, HepG2, PC9 cell lines
Protocol: Toxicity tests were then performed in multiple tumor cell lines.

[7] = system: MDA-MB-231 breast cancer orthotopic model; experiment: Breast cancer orthotopic model established with MDA-MB-231 cell line; type: in vivo, mouse; conditions: 50 mg/kg intraperitoneal
From the text: To further verify the anti-tumor effect of 36806 in vivo, a breast cancer orthotopic model is established by using a MDA-MB-231 cell line. […] The tumor volume measured on the body surface was reduced, and the size and wet weight of the tumor after dissection were reduced as well (FIGS. 6C-6D). […] HE staining confirmed the orthotopic lung metastasis of breast cancer (FIG. 6F). […] The above is consistent with the results of in-vitro experiments, that is, 36806 can inhibit the proliferation and metastasis of breast cancer orthotopic model.
A breast cancer orthotopic model is established by using a MDA-MB-231 cell line. 0.2 mg/kg 36806 in combination with 0.2 mg/kg DZNEP served as a combination group (the molar ratio was about 1:1), 0.2 mg/kg 36806 and 1 mg/kg DZNEP served as single-drug groups, and DMSO served as a control group.

[8] = 40 uM, 48 hours, glioma and breast cancer cell lines
[9] = low concentration gradient of 10 nM to 10 uM, 48 hours

CC(C)NCC1Cc2cc(Cl)cc(Cl)c2O1 (stereo not drawn) [compound 36806, N-[(5,7-dichloro-2,3-dihydro-1-benzofuran-2-yl)methyl]propan-2-amine]
nucleus-cytoplasm distribution of beta-catenin (beta-catenin; compared with DMSO group): decreased
protein expression of downstream EMT-related genes (beta-catenin; multiple tumor cell lines): reduced
binding of HOTAIR to the target genes (CHIRP) [1]: without affecting
level of H3K27me3 in the promoter region of the target genes (CHIP) [2]: reduced
binding of H3K27me3 in site1 region of APC2 promoter ([2]; after treatment with 36806): weakened
binding of RNA polymerase II in site1 region of APC2 promoter ([2]; after treatment with 36806): strengthened
mRNA level of HOTAIR's target genes HOXD10, PCDH10, PCDHB5, NLK, APC2 (HOTAIR target genes [3]; [8]): increase
expression level of HOTAIR target genes (HOTAIR target genes [3]; RNA level, 40 nM, 48 h, multiple tumor cell lines): up-regulate
RNA level of the target genes (HOTAIR target genes [3]; [9]): increased
protein level of HOTAIR's target genes HOXD10, PCDH10, PCDHB5, NLK, APC2 (HOTAIR target genes [4]; [8]): increase
protein level of the target genes, time gradient (HOTAIR target genes [4]; 40 uM, time gradient): changed
protein level of the target genes (HOTAIR target genes [4]; [9]): increased
invasion of tumor cells [5]: weakened
IC50 of 36806 [6]: low
expression of APC2 (immunofluorescence of tissue sections) [7]: increased
expression of beta-catenin (immunofluorescence of tissue sections) [7]: decreased
expression of target genes HOXD10 and PCDH10 (immunofluorescence of tissue sections) [7]: increased
tumor size (bioluminescence imaging) ([7]; 20 days and 40 days, vs DMSO group): significantly reduced
size and wet weight of the tumor after dissection ([7]; vs DMSO group): reduced
tumor volume measured on the body surface ([7]; vs DMSO group): reduced
probability and scope of lung metastasis ([7]; organ imaging): smaller
